In US11780826B2 (Amgen Inc., priority 2017, dated 2023):

Tested on: Bovine cardiac myofibrils
Experiment: In vitro model of dose-dependent myofibril ATPase modulation (AC1.4, pyruvate kinase/lactate dehydrogenase-coupled ATPase assay at pCa25)
Type: biochemical
Conditions: concentration at which ATPase activity was 1.4-fold higher than the bottom of the dose curve, mean of a minimum of two independent tests
Summary of the method: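 ATP turnover tracked as NADH absorbance loss at 340 nm, coupled via pyruvate kinase/lactate dehydrogenase, with 1 mM ATP, 2 mM MgCl2 and 12 mM K-PIPES at pH 6.80 (22° C) under EGTA/CaCl2 calcium buffering. Substrate was detergent-treated bovine cardiac myofibrils; 4-parameter curve fit, AC1.4 averaged over at least two runs.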

| AC1.4 [µM] | SMILES |
| --- | --- |
| 5.5675 | C[C@@H](NC(=O)[C@H]1CCCN1C(=O)[C@H]1CCCN(S(=O)(=O)N2CC(C#N)C2)C1)c1ccc(F)cc1OC(F)F [Example 698, 1-(((3S)-1-((3-cyano-1-azetidinyl)sulfonyl)-3-piperidinyl)carbonyl)-N-((1R)-1-(2-(difluoromethoxy)-4-fluorophenyl)ethyl)-D-prolinamide] |
| 4.776 | N#CC1CN(S(=O)(=O)c2cccc(C(=O)N3Cc4ccccc4CC3C(=O)NCc3ccc(C(F)(F)F)cc3)c2)C1 (stereo not shown) [Example 671, 2-(3-((3-cyanoazetidin-1-yl)sulfonyl)benzoyl)-N-(4-(trifluoromethyl)benzyl)-1,2,3,4-tetrahydroisoquinoline-3-carboxamide] |
| 1.7885 | Cc1cc(Cl)cc(CNC(=O)[C@H]2CCCN2C(=O)[C@H]2CCCN(S(=O)(=O)N3CC(C#N)C3)C2)c1 [Example 443, N-(3-chloro-5-methylbenzyl)-1-(((3S)-1-((3-cyano-1-azetidinyl)sulfonyl)-3-piperidinyl)carbonyl)-D-prolinamide] |
| 0.1474 | Cc1ccc([C@@H](C)NC(=O)[C@H]2CCCN2C(=O)[C@H]2CCCN(S(=O)(=O)N3CC(C#N)C3)C2)c(F)c1 [Example 98, 1-(((3S)-1-((3-cyano-1-azetidinyl)sulfonyl)-3-piperidinyl)carbonyl)-N-((1R)-1-(2-fluoro-4-methylphenyl)ethyl)-D-prolinamide] |
| 4.554 | CS(=O)(=O)c1cc(C(=O)N2[C@@H](C(=O)N[C@@H](c3ccc(C(F)(F)F)c(F)c3)C3CC3)C[C@H]3C[C@H]32)ccn1 [Example 665, (1R,3R,5R)-N-((R)-cyclopropyl(3-fluoro-4-(trifluoromethyl)phenyl)methyl)-2-((2-(methylsulfonyl)-4-pyridinyl)carbonyl)-2-azabicyclo[3.1.0]hexane-3-carboxamide] |
| 0.4488 | O=C(N[C@@H](c1ccc(C(F)(F)F)cc1F)C1CC1)[C@H]1C[C@H]2C[C@H]2N1C(=O)c1cccc(S(=O)(=O)C2CC2)c1 [Example 211, (1R,3R,5R)-N-((R)-cyclopropyl(2-fluoro-4-(trifluoromethyl)phenyl)methyl)-2-(3-(cyclopropylsulfonyl)benzoyl)-2-azabicyclo[3.1.0]hexane-3-carboxamide] |
| 0.1446 | N#CC1CN(S(=O)(=O)c2cccc(C(=O)N3CC(F)(F)C[C@@H]3C(=O)NCc3ccc(C(F)(F)F)nc3)c2)C1 [Example 95, 1-((3-((3-cyano-1-azetidinyl)sulfonyl)phenyl)carbonyl)-4,4-difluoro-N-((6-(trifluoromethyl)-3-pyridinyl)methyl)-D-prolinamide] |
| 2.157 | N#CC1CN(S(=O)(=O)c2cccc(C(=O)N3c4ccccc4CC3C(=O)NCc3ccc(C(F)(F)F)cc3)c2)C1 (racemic) [Example 481, (2R)-1-((3-((3-cyano-1-azetidinyl)sulfonyl)phenyl)carbonyl)-N-(4-(trifluoromethyl)benzyl)-2,3-dihydro-1H-indole-2-carboxamide and (2S)-1-((3-((3-cyano-1-azetidinyl)sulfonyl)phenyl)carbonyl)-N-(4-(trifluoromethyl)benzyl)-2,3-dihydro-1H-indole-2-carboxamide] |
| 0.06495 | N#C[C@H]1C[C@@H](S(=O)(=O)N2CCC[C@H](C(=O)N3CCC[C@@H]3C(=O)NCc3ccc(C(F)(F)F)cc3)C2)C1 [Example 59, 1-(((3S)-1-((cis-3-cyanocyclobutyl)sulfonyl)-3-piperidinyl)carbonyl)-N-(4-(trifluoromethyl)benzyl)-D-prolinamide] |
| 1.484 | O=C(N[C@@H](c1ccc(C(F)(F)F)cc1F)C1COC1)[C@H]1C[C@H]2C[C@H]2N1C(=O)c1cc(C(F)(F)F)ccn1 [Example 409, (1R,3R,5R)-N-((R)-(2-fluoro-4-(trifluoromethyl)phenyl)(3-oxetanyl)methyl)-2-((4-(trifluoromethyl)-2-pyridinyl)carbonyl)-2-azabicyclo[3.1.0]hexane-3-carboxamide] |
| 0.5932 | O=C(N[C@@H](c1ccc(C(F)(F)F)cc1F)C1CC1)[C@H]1C[C@H]2C[C@H]2N1C(=O)c1cccc(S(=O)(=O)CCO)c1 [Example 249, (1R,3R,5R)-N-((R)-cyclopropyl(2-fluoro-4-(trifluoromethyl)phenyl)methyl)-2-(3-((2-hydroxyethyl)sulfonyl)benzoyl)-2-azabicyclo[3.1.0]hexane-3-carboxamide] |
| 2.2325 | O=C(NCc1ccc(C(F)(F)F)cc1)[C@H]1CCCN1C(=O)[C@H]1CCCN(S(=O)(=O)N2CC(NC(=O)C(F)(F)F)C2)C1 [Example 489, 1-(((3S)-1-((3-((trifluoroacetyl)amino)-1-azetidinyl)sulfonyl)-3-piperidinyl)carbonyl)-N-(4-(trifluoromethyl)benzyl)-D-prolinamide] |
| 0.0215 | N#CC1CN(S(=O)(=O)N2CCC[C@H](C(=O)N3CCC[C@@H]3C(=O)N[C@@H](c3ccc(C(F)(F)F)cc3)C3CC3)C2)C1 [Example 11, 1-(((3S)-1-((3-cyano-1-azetidinyl)sulfonyl)-3-piperidinyl)carbonyl)-N-((R)-cyclopropyl(4-(trifluoromethyl)phenyl)methyl)-D-prolinamide] |
| 3.077 | CCN(CC)S(=O)(=O)c1cccc(C(=O)N2CCC[C@@H]2C(=O)NCc2ccc(C(F)(F)F)cc2)c1 [Example 564, 1-(3-(diethylsulfamoyl)benzoyl)-N-(4-(trifluoromethyl)benzyl)-D-prolinamide] |
| 0.8972 | C[C@H](NC(=O)[C@H]1CCCN1C(=O)c1cccc(S(=O)(=O)N2CC(C#N)C2)c1)c1ccc(Cl)cc1 [Example 330, N-((1S)-1-(4-chlorophenyl)ethyl)-1-((3-((3-cyano-1-azetidinyl)sulfonyl)phenyl)carbonyl)-D-prolinamide] |
| 0.1828 | C[C@H](C(=O)N[C@H](C)c1ccc(C(F)(F)F)cc1)N(C)C(=O)c1cccc(S(=O)(=O)N2CC(C#N)C2)c1 [Example 121, 3-((3-cyano-1-azetidinyl)sulfonyl)-N-methyl-N-((1R)-1-methyl-2-oxo-2-(((1R)-1-(4-(trifluoromethyl)phenyl)ethyl)amino)ethyl)benzamide] |
| 3.3475 | CS(=O)(=O)c1cccc(C(=O)N2CCCC[C@@H]2C(=O)N[C@@H](c2ccc(C(F)F)cc2F)C2CC2)c1 [Example 578, (2R)-N-((R)-cyclopropyl(4-(difluoromethyl)-2-fluorophenyl)methyl)-1-(3-(methylsulfonyl)benzoyl)-2-piperidinecarboxamide] |
| 2.8425 | CS(=O)(=O)c1ccc(N2CC(C#N)C2)c(C(=O)N2CCC[C@@H]2C(=O)N[C@@H](c2ccc(C(F)(F)F)cc2F)C2CC2)c1 [Example 550, (R)-1-(2-(3-cyanoazetidin-1-yl)-5-(methylsulfonyl)benzoyl)-N—((R)-cyclopropyl(2-fluoro-4-(trifluoromethyl)phenyl)methyl)pyrrolidine-2-carboxamide] |
| 1.232 | CCS(=O)(=O)c1cccc(C(=O)N2[C@@H](C(=O)N[C@@H](c3ccc(C(F)(F)F)cc3F)C3(O)CC3)C[C@H]3C[C@H]32)c1 [Example 382, (1R,3R,5R)-2-(3-(ethylsulfonyl)benzoyl)-N-((S)-(2-fluoro-4-(trifluoromethyl)phenyl)(1-hydroxycyclopropyl)methyl)-2-azabicyclo[3.1.0]hexane-3-carboxamide] |
